± gives the uncertainty stated by the source.

For one compound, Kd and EC50 results are on record in the supplement of paper PMC12823440, “Inhibitors supercharge kinase turnover through native proteolytic circuits” (Nature, 2025).

What all share (settings): lysate: 5-cell-line mix (COLO-205, K562, SK-N-BE(2), MV-4-11, OVCAR-8)
In experiment [1] the target is T1, BCR (UniProt P11274).
T1 sequence (whole entry): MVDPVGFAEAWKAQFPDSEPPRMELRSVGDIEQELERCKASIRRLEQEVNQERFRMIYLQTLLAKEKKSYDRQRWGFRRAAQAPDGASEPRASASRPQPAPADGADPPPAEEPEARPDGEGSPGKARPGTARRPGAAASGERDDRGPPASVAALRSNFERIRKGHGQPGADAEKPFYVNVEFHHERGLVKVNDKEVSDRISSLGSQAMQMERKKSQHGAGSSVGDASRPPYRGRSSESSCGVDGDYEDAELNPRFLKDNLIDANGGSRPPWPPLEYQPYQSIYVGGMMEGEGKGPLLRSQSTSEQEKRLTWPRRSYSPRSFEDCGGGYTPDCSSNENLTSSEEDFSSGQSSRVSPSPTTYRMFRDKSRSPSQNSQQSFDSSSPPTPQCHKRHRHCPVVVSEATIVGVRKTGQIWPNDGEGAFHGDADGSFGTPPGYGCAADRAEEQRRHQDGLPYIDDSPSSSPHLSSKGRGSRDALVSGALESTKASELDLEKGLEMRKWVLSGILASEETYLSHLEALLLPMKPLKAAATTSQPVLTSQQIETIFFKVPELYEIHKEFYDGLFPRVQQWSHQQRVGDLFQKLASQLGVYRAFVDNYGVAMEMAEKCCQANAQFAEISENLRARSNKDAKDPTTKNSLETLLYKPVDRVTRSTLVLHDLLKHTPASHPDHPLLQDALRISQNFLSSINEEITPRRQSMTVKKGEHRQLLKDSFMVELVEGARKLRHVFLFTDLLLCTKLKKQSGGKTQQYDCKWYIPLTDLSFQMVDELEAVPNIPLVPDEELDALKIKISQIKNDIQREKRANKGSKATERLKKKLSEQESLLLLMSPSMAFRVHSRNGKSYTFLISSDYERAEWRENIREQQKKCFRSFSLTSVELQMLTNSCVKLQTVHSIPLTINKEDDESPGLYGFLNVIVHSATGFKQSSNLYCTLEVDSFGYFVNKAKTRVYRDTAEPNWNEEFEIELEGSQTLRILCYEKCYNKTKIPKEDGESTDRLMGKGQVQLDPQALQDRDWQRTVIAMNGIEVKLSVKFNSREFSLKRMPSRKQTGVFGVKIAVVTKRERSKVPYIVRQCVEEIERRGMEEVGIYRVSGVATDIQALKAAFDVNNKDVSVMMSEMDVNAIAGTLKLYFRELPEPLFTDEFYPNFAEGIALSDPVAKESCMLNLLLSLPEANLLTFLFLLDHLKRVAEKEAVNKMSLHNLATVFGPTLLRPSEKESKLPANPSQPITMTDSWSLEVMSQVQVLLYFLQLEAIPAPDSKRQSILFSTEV
As to the kind of experiment: apparent Kd (Kinobeads competition).

Experiment [2] addresses T2, FECH (UniProt P22830).
T2 sequence (whole entry): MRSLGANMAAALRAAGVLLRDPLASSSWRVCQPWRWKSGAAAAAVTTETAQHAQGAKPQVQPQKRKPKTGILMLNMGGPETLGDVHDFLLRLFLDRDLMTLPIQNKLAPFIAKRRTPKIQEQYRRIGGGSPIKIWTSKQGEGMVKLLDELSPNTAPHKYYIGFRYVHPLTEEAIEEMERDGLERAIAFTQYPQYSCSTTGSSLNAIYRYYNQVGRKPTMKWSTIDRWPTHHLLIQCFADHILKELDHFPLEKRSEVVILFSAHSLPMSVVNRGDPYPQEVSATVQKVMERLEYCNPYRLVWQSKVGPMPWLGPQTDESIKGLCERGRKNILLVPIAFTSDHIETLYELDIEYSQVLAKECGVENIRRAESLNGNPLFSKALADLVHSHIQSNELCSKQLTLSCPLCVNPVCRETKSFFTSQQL
Put plainly: apparent Kd (Kinobeads competition).

Experiment [3] addresses T3, PAG1 (UniProt Q9NWQ8).
T3 sequence (whole entry): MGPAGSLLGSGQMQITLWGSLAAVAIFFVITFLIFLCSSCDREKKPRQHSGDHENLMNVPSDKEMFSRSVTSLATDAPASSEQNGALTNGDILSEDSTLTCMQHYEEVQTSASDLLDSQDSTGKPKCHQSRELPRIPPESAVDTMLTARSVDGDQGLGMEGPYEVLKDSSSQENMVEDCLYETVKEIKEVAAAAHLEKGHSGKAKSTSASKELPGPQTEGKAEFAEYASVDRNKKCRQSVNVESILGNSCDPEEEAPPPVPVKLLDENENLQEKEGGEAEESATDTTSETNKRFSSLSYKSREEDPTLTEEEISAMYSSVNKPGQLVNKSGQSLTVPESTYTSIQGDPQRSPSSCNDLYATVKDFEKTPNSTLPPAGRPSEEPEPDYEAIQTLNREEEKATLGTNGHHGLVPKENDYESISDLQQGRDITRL
As to the kind of experiment: apparent Kd (Kinobeads competition).

Experiment [4] concerns the target UNC119 (UniProt Q13432). Put plainly: apparent Kd (Kinobeads competition).
Experiment [5] addresses ABL1 (UniProt P00519). As to the kind of experiment: EC50 for competition of Kinobead binding.
The target of experiment [6] is ABL2 (UniProt P42684). As to the kind of experiment: EC50 for competition of Kinobead binding.
Experiment [7] concerns the target T1, BCR. Put plainly: EC50 for competition of Kinobead binding.
In experiment [8] the target is BTK (UniProt Q06187). As to the kind of experiment: EC50 for competition of Kinobead binding.
For experiment [9], the target named is FRK (UniProt P42685). As to the kind of experiment: EC50 for competition of Kinobead binding.
The target of experiment [10] is T4, MAP4K3 (UniProt Q8IVH8).
T4 sequence (whole entry): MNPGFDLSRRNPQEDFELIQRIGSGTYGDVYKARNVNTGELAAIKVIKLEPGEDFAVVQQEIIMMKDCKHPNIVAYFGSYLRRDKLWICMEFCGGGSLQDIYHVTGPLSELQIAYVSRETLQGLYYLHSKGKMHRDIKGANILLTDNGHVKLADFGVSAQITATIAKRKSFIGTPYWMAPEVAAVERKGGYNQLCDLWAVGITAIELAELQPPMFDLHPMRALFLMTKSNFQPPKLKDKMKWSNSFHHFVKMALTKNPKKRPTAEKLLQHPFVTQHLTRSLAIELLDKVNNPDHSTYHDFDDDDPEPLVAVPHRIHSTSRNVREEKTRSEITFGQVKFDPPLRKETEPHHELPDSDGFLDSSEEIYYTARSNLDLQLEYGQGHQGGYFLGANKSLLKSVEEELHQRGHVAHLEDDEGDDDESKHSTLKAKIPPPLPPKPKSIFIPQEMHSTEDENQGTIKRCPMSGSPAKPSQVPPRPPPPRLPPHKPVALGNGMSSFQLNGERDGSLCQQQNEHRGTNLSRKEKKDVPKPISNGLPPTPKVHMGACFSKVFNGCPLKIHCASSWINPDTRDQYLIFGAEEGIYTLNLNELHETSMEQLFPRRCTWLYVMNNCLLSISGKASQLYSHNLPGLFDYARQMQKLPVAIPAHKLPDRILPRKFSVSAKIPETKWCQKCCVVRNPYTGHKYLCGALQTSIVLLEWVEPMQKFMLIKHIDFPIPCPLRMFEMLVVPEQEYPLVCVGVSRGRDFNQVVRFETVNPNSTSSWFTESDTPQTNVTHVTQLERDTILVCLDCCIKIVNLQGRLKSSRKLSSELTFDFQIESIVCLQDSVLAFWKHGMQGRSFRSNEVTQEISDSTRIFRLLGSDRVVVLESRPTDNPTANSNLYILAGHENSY
As to the kind of experiment: EC50 for competition of Kinobead binding.

For experiment [11], the target named is T3, PAG1. As to the kind of experiment: EC50 for competition of Kinobead binding.
Experiment [12] has as its target UNC119 (UniProt Q13432). As to the kind of experiment: EC50 for competition of Kinobead binding.

Chain of ABL1 (P00519 whole entry): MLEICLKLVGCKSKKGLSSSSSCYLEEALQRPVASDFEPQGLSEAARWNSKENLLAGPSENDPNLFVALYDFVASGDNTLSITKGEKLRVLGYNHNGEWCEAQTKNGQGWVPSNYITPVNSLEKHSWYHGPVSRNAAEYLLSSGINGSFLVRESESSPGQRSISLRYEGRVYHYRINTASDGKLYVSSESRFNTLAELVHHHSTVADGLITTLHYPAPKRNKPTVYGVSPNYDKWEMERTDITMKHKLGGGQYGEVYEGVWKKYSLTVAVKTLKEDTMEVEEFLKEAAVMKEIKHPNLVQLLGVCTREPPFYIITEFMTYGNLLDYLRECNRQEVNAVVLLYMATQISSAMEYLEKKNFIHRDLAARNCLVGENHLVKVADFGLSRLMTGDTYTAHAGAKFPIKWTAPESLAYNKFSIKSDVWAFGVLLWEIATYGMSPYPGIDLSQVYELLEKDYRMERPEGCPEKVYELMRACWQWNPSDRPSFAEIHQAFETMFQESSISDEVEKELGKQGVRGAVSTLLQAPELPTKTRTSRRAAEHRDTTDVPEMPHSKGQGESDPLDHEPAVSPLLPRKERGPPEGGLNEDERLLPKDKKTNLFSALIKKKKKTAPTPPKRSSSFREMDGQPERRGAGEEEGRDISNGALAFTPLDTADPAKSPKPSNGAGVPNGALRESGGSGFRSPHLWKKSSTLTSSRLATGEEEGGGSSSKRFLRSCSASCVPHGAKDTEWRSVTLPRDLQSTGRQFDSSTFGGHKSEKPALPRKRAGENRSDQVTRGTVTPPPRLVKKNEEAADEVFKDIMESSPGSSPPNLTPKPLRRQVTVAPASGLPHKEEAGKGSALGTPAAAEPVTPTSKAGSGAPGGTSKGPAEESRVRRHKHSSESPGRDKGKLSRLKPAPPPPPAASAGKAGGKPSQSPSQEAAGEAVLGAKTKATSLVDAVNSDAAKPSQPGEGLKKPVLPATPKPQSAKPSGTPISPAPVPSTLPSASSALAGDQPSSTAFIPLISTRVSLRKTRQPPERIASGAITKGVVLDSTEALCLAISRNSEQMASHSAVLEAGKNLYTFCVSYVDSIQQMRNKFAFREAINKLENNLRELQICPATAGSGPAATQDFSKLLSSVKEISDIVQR
Chain of ABL2 (P42684 whole entry): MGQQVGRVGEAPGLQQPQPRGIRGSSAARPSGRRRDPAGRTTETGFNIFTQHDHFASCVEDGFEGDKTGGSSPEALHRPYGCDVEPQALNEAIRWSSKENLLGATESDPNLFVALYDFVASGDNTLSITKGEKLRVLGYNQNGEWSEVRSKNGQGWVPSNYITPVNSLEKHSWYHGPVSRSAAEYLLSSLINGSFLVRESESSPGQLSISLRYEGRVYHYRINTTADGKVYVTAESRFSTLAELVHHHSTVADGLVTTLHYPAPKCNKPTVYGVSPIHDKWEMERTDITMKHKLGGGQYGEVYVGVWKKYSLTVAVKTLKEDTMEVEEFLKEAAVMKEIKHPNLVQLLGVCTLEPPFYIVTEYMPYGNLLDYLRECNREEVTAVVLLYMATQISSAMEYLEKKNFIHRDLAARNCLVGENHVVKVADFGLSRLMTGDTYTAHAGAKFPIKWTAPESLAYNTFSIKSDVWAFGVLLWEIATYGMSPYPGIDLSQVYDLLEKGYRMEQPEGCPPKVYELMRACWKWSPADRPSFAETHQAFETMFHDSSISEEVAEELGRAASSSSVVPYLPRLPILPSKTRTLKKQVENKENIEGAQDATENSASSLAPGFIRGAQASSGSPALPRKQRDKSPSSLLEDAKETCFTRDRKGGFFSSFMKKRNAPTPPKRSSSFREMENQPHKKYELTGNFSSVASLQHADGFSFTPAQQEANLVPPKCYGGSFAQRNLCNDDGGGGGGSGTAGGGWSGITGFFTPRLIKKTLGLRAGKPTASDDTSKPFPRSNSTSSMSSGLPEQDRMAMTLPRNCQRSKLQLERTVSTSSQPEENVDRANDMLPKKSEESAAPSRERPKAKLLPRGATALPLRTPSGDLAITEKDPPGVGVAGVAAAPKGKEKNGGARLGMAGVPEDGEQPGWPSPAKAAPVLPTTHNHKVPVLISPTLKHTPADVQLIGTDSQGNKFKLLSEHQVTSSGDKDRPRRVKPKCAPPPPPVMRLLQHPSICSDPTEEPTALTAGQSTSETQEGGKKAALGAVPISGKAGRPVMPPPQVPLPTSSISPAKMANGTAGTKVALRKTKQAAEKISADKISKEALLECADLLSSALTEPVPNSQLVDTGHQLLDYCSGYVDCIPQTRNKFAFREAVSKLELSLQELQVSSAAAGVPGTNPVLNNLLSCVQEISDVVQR
Chain of BTK (Q06187 whole entry): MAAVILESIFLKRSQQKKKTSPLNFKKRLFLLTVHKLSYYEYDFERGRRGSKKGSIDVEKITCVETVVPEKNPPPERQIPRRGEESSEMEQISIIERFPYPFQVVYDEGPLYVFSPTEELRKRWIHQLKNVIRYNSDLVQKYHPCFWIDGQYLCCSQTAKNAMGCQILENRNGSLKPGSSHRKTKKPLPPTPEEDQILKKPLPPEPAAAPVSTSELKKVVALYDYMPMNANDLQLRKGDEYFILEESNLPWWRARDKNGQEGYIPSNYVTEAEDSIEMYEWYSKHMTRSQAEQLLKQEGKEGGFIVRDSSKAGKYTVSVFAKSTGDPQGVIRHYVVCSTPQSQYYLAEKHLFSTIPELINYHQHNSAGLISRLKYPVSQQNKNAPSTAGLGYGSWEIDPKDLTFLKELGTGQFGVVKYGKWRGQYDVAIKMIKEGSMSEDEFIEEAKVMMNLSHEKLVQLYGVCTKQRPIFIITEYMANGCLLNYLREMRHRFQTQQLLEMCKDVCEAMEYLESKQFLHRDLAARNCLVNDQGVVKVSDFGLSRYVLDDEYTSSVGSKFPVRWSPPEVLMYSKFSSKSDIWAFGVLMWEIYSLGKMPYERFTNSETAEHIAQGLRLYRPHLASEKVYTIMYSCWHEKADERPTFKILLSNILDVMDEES
Chain of FRK (P42685 whole entry): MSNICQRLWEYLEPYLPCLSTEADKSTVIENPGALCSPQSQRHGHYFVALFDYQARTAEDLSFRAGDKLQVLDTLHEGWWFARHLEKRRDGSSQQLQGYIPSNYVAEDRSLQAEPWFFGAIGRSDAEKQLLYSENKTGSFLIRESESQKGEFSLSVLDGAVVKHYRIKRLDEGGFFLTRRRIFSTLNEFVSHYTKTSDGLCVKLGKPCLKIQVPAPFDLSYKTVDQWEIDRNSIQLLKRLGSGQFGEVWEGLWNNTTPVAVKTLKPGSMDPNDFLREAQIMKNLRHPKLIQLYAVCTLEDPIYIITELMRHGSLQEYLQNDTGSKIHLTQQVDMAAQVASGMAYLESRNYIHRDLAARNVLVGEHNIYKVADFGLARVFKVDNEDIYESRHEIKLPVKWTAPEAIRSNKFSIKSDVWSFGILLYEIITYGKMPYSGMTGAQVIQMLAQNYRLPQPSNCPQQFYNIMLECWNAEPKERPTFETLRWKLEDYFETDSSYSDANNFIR

One may read the EC50 as the concentration giving half of the maximal effect. A lower EC50 goes with a more potent agent. Take `COc1ccc2c(C(=O)Nc3ccc(NC(=O)c4nn(C5CCN(C(=O)CC(C)(C)C#N)CC5)c5ccc(F)cc45)cc3Cl)cnn2c1` [Src Inhibitor 3]: the Kd was found to be 127 nM in experiment [1], 6350 nM in [2], 48.4 nM in [3] and 24.1 nM in experiment [4]. The half-maximal effective concentration (EC50) in experiment [5] is 1530 ± 2600 nM; in [6], 332 ± 170 nM; in experiment [7], 790 ± 430 nM; in experiment [8] it was 4250 ± 2700 nM; in experiment [9], 17600 ± 34000 nM; in experiment [10], 14300 ± 28000 nM. Besides, the concentration for a half-maximal effect (EC50) in experiment [11] was found to be 70.9 ± 11 nM; in experiment [12], 904 ± 250 nM.
